What all share (type): in vivo
One assay concerns C. albicans C-43. Briefly: Candida systemic model in CF1 mice infected IV with C. albicans C-43, oral treatment. To be noted: for %SURVIVAL: day 4 post-infection; for CFUs (GM): day 4, geometric mean of the logarithms of CFU remaining in the kidneys (dead mice counted as 10^9). How it is done: The compounds of Examples 23-26 and itraconazole, fluconazole, and saperconazole were tested for in vivo oral antifungal activity in a Candida systemic model using CF1 male mice , average weight 20 g, Harlan Sprague Dawley, Inc., Indianapolis, Ind. infected by IV injection into the tail vein of C. albicans C-43 (5 million CFUs). […] Oral efficacy was measured after four (4) days by percent survival and by the number of organisms remaining in the kidneys i.e., the Colony Forming Units (CFUs). The mice were sacrificed and the kidneys of individual mice were homogenized in sterile saline, diluted and spread onto Mycosel agar. Colony counts were determined after 48 hours at 37°C. For calculation of geometric means, mice that died during the experiment were considered to have 10^9 CFUs/kidneys (based on numerous previous experiments).

The test system of assay [1] is Aspergillus flavus. Briefly: Aspergillus flavus pulmonary infection model in compromised mice, oral treatment. Particulars: for %SURVIVAL / %ANIMALS NEG: 18 days post infection; for %SURVIVAL: compromised CF-1 mice; for %ANIMALS NEG: negative = <10 colonies. From the text: The in vivo oral antifungal activity of the compounds of Example 23-26 were compared to those of itraconazole, fluconazole and saperconazole in an Aspergillus pulmonary infection model in mice. The procedure of David Loebenberg et al. entitled "Sch 42427, The Active Enantiomer of Antifungal agent Sch 39304: In Vitro and In Vivo Activity" Antimicrobial Agents and Chemotherapy (1992), 36 498-501 was used. The Aspergillus flavus pulmonary model was run in the following manner Male, CF-1 mice weighing 20 grams were compromised with cortisone acetate (100 mg/kg), administered subcutaneously, once daily for 3 days. In addition, to prevent bacterial disease, tetracycline HCL (300 mg/1) was added to the drinking water and given ad libitum. On day 2 of compromising, mice were infected in an inhalation chamber, first described by Piggot and Emmons in 1960 and modified by us. The chamber is a 1 liter pyrex, thick-walled flask with 8 tubular side-arms that extend into the flask. Each side-arm is a pyrex tube of 14 cm length, constricted to a 1 cm opening inside the flask. The bottom of the flask was covered with a malt extract agar medium on which a sporulating culture of A. flavus ATCC 24133 was grown for 13 days at room temperature. The top of the flask was closed with a #10 stopper through which passed a glass tube attached by rubber tubing to a 60 mL syringe. Mice were placed in each of the side arms and pushed to the bottoms so that their nares extended beyond the open end of the tube and over the agar. Cotton plugs were then inserted behind the mice to hold them in place. By pumping the 60 mL syringe twice, air was forced over the culture and produced a cloud of spores. Mice were exposed to the spore cloud for one minute. Within 15-30 minutes after exposure, a number of mice were sacrificed and lung tissue samples homogenized for culture to determine the number of inhaled conidia. Oral treatment began 24 h post-infection with doses of 5 to 250 mg of drug/kg in ethanol; vehicle (115 ml of Emulphor EL-719P, GAF, Wayne, NJ; and 5 ml of 20% w/v lactic acid per liter of water), 10:90 v/v, once daily for 4 days.
The procedure of Example 31 was used to compare the in vivo oral antifungal activity of (±)-5R/S-(cis)-4-[4-[4-[4-[[5-(2,4-difluorophenyl)-5-(1H-1,2,4-triazol-1-ylmethyl) tetrahydrofuran-3-yl]methoxy-phenyl-1-piperazinyl]phenyl]-2,4-dihydro-2[(R/S)-(1-methylpropyl)]-3H-1,2,4-triazol-3-one with (±)-2R/S-(cis)-1-[4-[[2-(2,4-difluorophenyl)-2-(1H-1,2,4-triazol-1-ylmethyl) tetrahydro-4-furanyl]methoxy]phenyl]-4-(1-methylethyl)piperazine of Example 68 of USP 5,039,676 in an Aspergillus pulmonary infection model described in Example 31. […]
The procedures of Examples 31 and 34 were used.

In assay [2] the test system is Aspergillus flavus. The description is as above. To be noted: for %SURVIVAL / CFU-GEO MEAN OF SURVIVORS / %ANIMALS NEG: 18 days post infection; for %SURVIVAL: compromised CF-1 mice; for CFU-GEO MEAN OF SURVIVORS: geometric mean of the logarithm of CFU remaining in the lung; for %ANIMALS NEG: negative = <10 colonies.
The mark [3] stands for this setting: 1 MPK PO in PEG-200, 1 a day x 4 days.
Setting [4] is: 10 MPK PO in PEG-200, 1 a day x 4 days.
Where [5] appears, read: 25 MPK PO in PEG-200, 1 a day x 4 days.
Where [6] appears, read: 50 MPK PO in PEG-200, 1 a day x 4 days.
The mark [7] stands for this setting: 33 mg/kg PO once a day for 4 days.
Setting [8] is: 66 mg/kg PO once a day for 4 days.
Setting [9] is: 100 mg/kg PO once a day for 4 days.
Setting [10] is: 33 mg/kg PO [3RX/DAY] for 4 days.

With `CC[C@@H](C)n1ncn(-c2ccc(N3CCN(c4ccc(OC[C@@H]5CO[C@@](Cn6cncn6)(c6ccc(F)cc6F)C5)cc4)CC3)cc2)c1=O` [Example 23], the “%SURVIVAL” value is listed as 10% with C. albicans C-43 (setting [3]); 50% in the assay on C. albicans C-43 (setting [4]); 80% with C. albicans C-43 (setting [5]); 90% with C. albicans C-43 (setting [6]); 10% in the assay with Aspergillus flavus [1] (setting [7]); 10% in the assay with Aspergillus flavus [1] (setting [8]). The “%SURVIVAL” value with Aspergillus flavus [1] (setting [9]) came to 70%; in the assay with Aspergillus flavus [2] (setting [10]), 60%. Further, the “CFUs (GM)” value came to 8.57 in the assay with C. albicans C-43 (1 MPK PO in PEG-200), 6.78 in the assay on C. albicans C-43 (10 MPK PO in PEG-200), 5.90 in the assay on C. albicans C-43 (25 MPK PO in PEG-200) and 5.62 in the assay with C. albicans C-43 (50 MPK PO in PEG-200). The “%ANIMALS NEG” value stood at 0% in the assay with Aspergillus flavus [1] (setting [7]), 0% with Aspergillus flavus [1] (setting [8]), 10% in the assay on Aspergillus flavus [1] (setting [9]) and 10% in the assay on Aspergillus flavus [2] (setting [10]). The entries for the “CFU-GEO MEAN OF SURVIVORS” value with Aspergillus flavus [2] (setting [10]) and in the assay on Aspergillus flavus [2] (setting [9]) were 1.08 and 1.85, respectively.

With `CC[C@H](C)n1ncn(-c2ccc(N3CCN(c4ccc(OC[C@@H]5CO[C@@](Cn6cncn6)(c6ccc(F)cc6F)C5)cc4)CC3)cc2)c1=O` [Example 24, (-)-[(5R)-cis]-4-[4-[4-[4-[[5-(2,4-Difluorophenyl)-5-(1H-1,2,4-triazol-1-ylmethyl)tetrahydrofuran-3-yl]methoxy]phenyl]-1-piperazinyl]phenyl]-2,4-dihydro-2-[(1S)-(1-methylpropyl)]-3H-1,2,4-triazol-3-one], the “%SURVIVAL” value is recorded as 30% with C. albicans C-43 (setting [3]); 40% in the assay on C. albicans C-43 (setting [4]); 100% in the assay on C. albicans C-43 (setting [5]); 100% in the assay on C. albicans C-43 (setting [6]); 0% in the assay on Aspergillus flavus [1] (setting [7]); 50% with Aspergillus flavus [1] (setting [8]). Moreover, the “%SURVIVAL” value in the assay with Aspergillus flavus [1] (setting [9]) came out at 100%; in the assay on Aspergillus flavus [2] (setting [10]), 40%. Further, the “CFUs (GM)” value in the assay on C. albicans C-43 (1 MPK PO in PEG-200) came out at 7.88; in the assay on C. albicans C-43 (10 MPK PO in PEG-200), 7.42; in the assay on C. albicans C-43 (25 MPK PO in PEG-200), 5.14; with C. albicans C-43 (50 MPK PO in PEG-200) it was 4.99. Further, in the assay with C. albicans C-43 (doses of 50, 25 and 10 mpk, each dissolved in PEG-200, result in words), the “oral activity in the Candida systemic model compared with itraconazole” value was “more active orally”. For the same compound, the “%ANIMALS NEG” value in the assay on Aspergillus flavus [1] (setting [7]) worked out at 0%; in the assay with Aspergillus flavus [1] (setting [8]), 0%; with Aspergillus flavus [1] (setting [9]), 20%; in the assay with Aspergillus flavus [2] (setting [10]) it was 0%. In addition, the “oral activity in the Aspergillus pulmonary mouse model” value in the assay with Aspergillus flavus [1] (PO, result in words (active / inactive)) is recorded as “exhibit oral activity”. In addition, the “oral activity against Aspergillus flavus pulmonary infections compared with itraconazole, fluconazole and saperconazole” value with Aspergillus flavus [1] (in vivo mouse model, PO, result in words) is “more active orally”. Further, the “CFU-GEO MEAN OF SURVIVORS” value in the assay with Aspergillus flavus [2] (setting [10]) came to 2.4; in the assay on Aspergillus flavus [2] (setting [8]), 2.25; in the assay with Aspergillus flavus [2] (setting [9]) it was 1.95.

`CCC(C)n1ncn(-c2ccc(N3CCN(c4ccc(OCC5COC(Cn6cncn6)(c6ccc(Cl)cc6Cl)O5)cc4)CC3)cc2)c1=O` (stereo not shown) [Itraconazole, reference compound]: the “%SURVIVAL” value in the assay on C. albicans C-43 (setting [4]) was found to be 0%; in the assay with C. albicans C-43 (setting [5]), 0%; in the assay on C. albicans C-43 (setting [6]) it was 60%; with Aspergillus flavus [1] (setting [9]) it was 20%; in the assay with Aspergillus flavus [2] (setting [10]), 10%; with Aspergillus flavus [2] (setting [7]), 0%. In the assay with Aspergillus flavus [2] (setting [8]), the “%SURVIVAL” value came out at 0%. For the same compound, the “CFUs (GM)” value in the assay with C. albicans C-43 (10 MPK PO in PEG-200) is recorded as 9.00; in the assay on C. albicans C-43 (25 MPK PO in PEG-200), 9.00; with C. albicans C-43 (50 MPK PO in PEG-200), 6.68. Also, the “%ANIMALS NEG” value with Aspergillus flavus [1] (setting [7]), in the assay with Aspergillus flavus [1] (setting [8]), in the assay on Aspergillus flavus [1] (setting [9]) and with Aspergillus flavus [2] (setting [10]) was 0% throughout. The “PERCENT SURVIVAL AFTER 5 DAYS (5D)” value in the assay on Aspergillus flavus [2] (head prints 50 mg/kg (third dose column, c3), in PEG-200 daily for 4 days, CF-1 mice) is reported as 17.

The values are drawn from EP0610377B1, “TRI-SUBSTITUTED TETRAHYDROFURAN ANTIFUNGALS” (SCHERING CORPORATION, priority 1991, dated 1993).
